From publication PMC7912796, “Design, Synthesis, Anticancer Activity, and Solid Lipid Nanoparticle Formulation of Indole- and Benzimidazole-Based Compounds as Pro-Apoptotic Agents Targeting Bcl-2 Protein” (Pharmaceuticals, 2021) come the findings set out here.

For data set [1], the system named is MDA-MB-231/breast cancer cells. As to the kind of experiment: MTT-cell proliferation assay. It is filed as cell-based, human. The following applies: for IC50: 48 h drug exposure, mean of three experiments ± SEM. The text has this: (§1) The potential anti-cancer activity of all fourteen final synthesized compounds was investigated through MTT cytotoxic assay against two different human solid cancerous cell lines; A549/lung and MDA-MB-231/breast adenocarcinoma. The adopted cell-proliferation assay assessed % cell viability in relation to the reducing activity of cellular NADPH-dependent cellular oxidoreductases on tetrazolium dye, MTT [2,5-diphenyl-3-(4,5-dimethylthiazol-2-yl)tetrazolium bromide salt], for furnishing an easily quantified insoluble chromogenic formazan. For each drug concentration, 0.1, 1, 10, and 100 μM, the % cell-viability was estimated relative to negative control following a complete 48 h of drug treatment. Both 5-fluorouracil (5-FU) and doxorubicin (DOX) were set as positive index comparators. Moreover, the safety profile of the synthesized compounds was further investigated by examining their in-vitro cytotoxicity on non-cancerous cell line; MDCK/kidney cells.
(§2) Evaluating the cytotoxicity of tested compounds on two cancer cell lines (A549/lung and MDA-MB-231/breast adenocarcinoma) and non-cancerous (MDCK/kidney cells) was performed while adopting the formerly described method with small alterations. Cancer cell lines were propagated within Dulbecco’s Modified Eagle Medium-High Glucose (Cat.#: P0103; DMEM_High Glucose with Na.Pyruvate and stable Glutamine, Biowest^TM, Nuaillé, France), while MDA-MB-231 cells were propagated within RPMI-1640 L-Glutamine medium (Cat.#:12-604F; Lonza-Verviers SPRL^TM, Verviers, Belgium). The culturing media were supplemented via 1% antibiotic-antimycotic 100X (Cat.#: L0010; Biowest^TM, Nuaillé, France) and 10% fetal bovine serum (FBS) (Cat.#: EU-000-H; Seralab^TM, West Sussex, UK). Cells were seeded as triplicates within 96-well plate, at 1 × 10^4 cells per well density, after being counted and viability checked using the trypan blue staining solution (Cat.# ab233465; Abcam^TM, Cambridge, MA, USA). Seeded cells were permitted to adhere for 24 h under 5% CO2 and at 37 °C incubating conditions. The assigned compounds were dissolved in 500 µL DMSO affording the stock solution (100 mM) being ready for more diluting within the whole medium to obtain the compound’s final concentrations; 0.1, 1, 10, 100 µM for cell treatments. […] Following 24 h compound-cell treatment, the medium was substituted by fresh one and cells were permitted to develop for 48 h. At four hours prior the end of incubation, 10 μL MTT Sigma-Aldrich^TM (5 mg/mL in PBS 1X without magnesium and calcium; Cat.# 17-516F, Lonza-Verviers^TM, Basel, Switzerland) were added to all wells. Following the complete 48 h incubation, 100 μL DMSO was all added to all wells where they were subsequently centrifuged at 4000 rpm for 5 min allowing the formazan crystals of formazan to precipitate. Color was established and intensities were recorded at 490 nm using Synergy-Neo2® Hybrid MultiMode Plate Reader (BioTek^TM, Winooski, VT, USA), while subtracting the multi-well plates background absorbance at 690 nm. Percentage cell viability was estimated using the subsequent formula: % cell-viability = (average absorbance of treated wells/average absorbance of controls) × 100.
(Formazan colour is commonly taken as a measure of viable cells.)

Data set [2] has as its system A549/lung adenocarcinoma cells. As to the kind of experiment: MTT-cell proliferation assay. The data set is classed as cell-based, human. The following applies: for IC50: Homo sapiens, A549, 48 h drug exposure, mean of three experiments ± SEM.
Description: as §1, §2

In the next data set the test system is A549/lung adenocarcinoma. As to the kind of experiment: Morphological assessment. It is filed as cell-based, human. The following applies: 0.1-100 µM (5-FU 100 µM), 48 h, phase-contrast microscope.
Data set [3] deals with MDCK/kidney non-cancerous cells. As to the kind of experiment: MTT-cell proliferation assay on non-cancerous cell line. The data set is classed as cell-based. The following applies: Canis lupus familiaris, MDCK, 48 h, 48 h drug exposure, mean ± SEM.
Description: as §1, §2

Structures are written as SMILES.

For `Cc1cccc(NCc2nc3ccccc3[nH]2)c1` [Compound 3a, N-((1H-benzo[d]imidazol-2-yl)methyl)-3-methylaniline], the melting point – broadly, the temperature of the solid-liquid transition – fell in the range of 139 to 141 °C. Besides, in data set [1] (Homo sapiens, MDA-MB-231, 48 h), the 50% inhibitory concentration (IC50) (in general, the midpoint of a concentration-inhibition curve) turned out to be 29.7 ± 4.03 µM.

Compound `Cc1cccc(C)c1NCc1nc2ccccc2[nH]1` [Compound 3b, N-((1H-benzo[d]imidazol-2-yl)methyl)-2,6-dimethylaniline] came in with a melting point of 159 to 161 °C. The “effect on cell proliferation” value in data set [2] (0.1-100 µM) is on record as “irregular effects with tendency to increase the cell proliferation”.

Regarding `Brc1cccc(NCc2nc3ccccc3[nH]2)c1` [Compound 3c, N-((1H-benzo[d]imidazol-2-yl)methyl)-3-bromoaniline], the melting point lay within 139 to 141 °C. The “effect on cell proliferation” value in data set [1] (100 µM drug concentration) is given as “enhanced cell proliferation”.

In the case of `Oc1ccc(NCc2nc3ccccc3[nH]2)cc1` [Compound 3d, 4-(((1H-benzo[d]imidazol-2-yl)methyl)amino)phenol], the melting point lay within 139 to 141 °C.

`O=c1[nH]cc(F)c(=O)[nH]1` [Compound 5-FU, 5-fluorouracil, reference compound]: the cell morphology alterations entry with A549/lung adenocarcinoma is recorded as “epithelial-mesenchymal transition was observed”.

The compound `O=C(NN=Cc1ccccc1)c1cc2ccccc2[nH]1` [Compound 7a, N′-benzylidene-1H-indole-2-carbohydrazide] gave a melting point of 111 to 113 °C.

`COc1ccc(C=NNC(=O)c2cc3ccccc3[nH]2)cc1` [Compound 7b, N′-(4-methoxybenzylidene)-1H-indole-2-carbohydrazide]: the melting point lay in the range of 104 to 106 °C. The IC50 in data set [1] (Homo sapiens, MDA-MB-231, 48 h) turned out to be 43.8 ± 1.09 µM. Besides, the IC50 in data set [3] is 28.9 ± 1.49 µM.

In turn, `CN(C)c1ccc(C=NNC(=O)c2cc3ccccc3[nH]2)cc1` [Compound 7c, N′-(4-(dimethylamino)benzylidene)-1H-indole-2-carbohydrazide] came in with a melting point of 90 to 92 °C.

The compound `O=C(NN=Cc1cccnc1)c1cc2ccccc2[nH]1` [Compound 7d, N′-(pyridin-3-ylmethylene)-1H-indole-2-carbohydrazide] displayed a melting point of 252 to 254 °C. In addition, the 50% inhibitory concentration (IC50) in data set [1] (Homo sapiens, MDA-MB-231, 48 h) came to 17.4 ± 3.23 µM.

In turn, `CCc1ccc(-c2nn(-c3ccccc3)cc2C=NNC(=O)c2cc3ccccc3[nH]2)cc1` [Compound 8a, N′-((3-(4-ethylphenyl)-1-phenyl-1H-pyrazol-4-yl)methylene)-1H-indole-2-carbohydrazide] returned a melting point of 254 to 256 °C. Moreover, in data set [2], the IC50 was found to be 23.1 ± 1.45 µM. Further, in data set [1] (Homo sapiens, MDA-MB-231, 48 h), the 50% inhibitory concentration (IC50) came to 12.7 ± 0.84 µM. Further, in data set [3], the half-inhibitory concentration (IC50) is 73.9 ± 2.3 µM.

`CC(C)c1ccc(-c2nn(-c3ccccc3)cc2C=NNC(=O)c2cc3ccccc3[nH]2)cc1` [Compound 8c, N′-((3-(4-isopropylphenyl)-1-phenyl-1H-pyrazol-4-yl)methylene)-1H-indole-2-carbohydrazide] showed a melting point of 219 to 221 °C. The IC50 in data set [2] amounted to 11.6 ± 2.57 µM. The 50% inhibitory concentration (IC50) in data set [1] (Homo sapiens, MDA-MB-231, 48 h) amounted to 12.8 ± 3.5 µM. The concentration for half-maximal inhibition (IC50) in data set [3] came out at 87.3 ± 3 µM.

As to `CC(C)Cc1ccc(-c2nn(-c3ccccc3)cc2C=NNC(=O)c2cc3ccccc3[nH]2)cc1` [Compound 8d, N′-((3-(4-isobutylphenyl)-1-phenyl-1H-pyrazol-4-yl)methylene)-1H-indole-2-carbohydrazide], the melting point lay within 229 to 231 °C. Besides, in data set [1], the IC50 is 31.5 ± 4.66 µM. In addition, in data set [1] (Homo sapiens, MDA-MB-231, 48 h), the IC50 turned out to be 21.6 µM.

The compound `Cc1nn(-c2ccc([N+](=O)[O-])c([N+](=O)[O-])c2)c(Cl)c1C=NNC(=O)c1cc2ccccc2[nH]1` [Compound 8f, N′-((5-chloro-1-(3,4-dinitrophenyl)-3-methyl-1H-pyrazol-4-yl)methylene)-1H-indole-2-carbohydrazide] registered a melting point of 204 to 206 °C. The IC50 in data set [1] turned out to be 21.6 ± 0.28 µM. In addition, the half-inhibitory concentration (IC50) in data set [1] (Homo sapiens, MDA-MB-231, 48 h) was 31.5 µM.
